Blank lines part the entries; values can stand above or below the compound they belong to.
Key:
[1] = target: T1, Beta-3 adrenergic receptor (Homo sapiens, UniProt P13945); experiment: Agonist activity at human beta3 adrenergic receptor expressed in CHO cells assessed as accumulation of cAMP after 30 mins by TR-FRET assay; format: functional, cell-based
Target sequence in this assay (P13945 whole entry): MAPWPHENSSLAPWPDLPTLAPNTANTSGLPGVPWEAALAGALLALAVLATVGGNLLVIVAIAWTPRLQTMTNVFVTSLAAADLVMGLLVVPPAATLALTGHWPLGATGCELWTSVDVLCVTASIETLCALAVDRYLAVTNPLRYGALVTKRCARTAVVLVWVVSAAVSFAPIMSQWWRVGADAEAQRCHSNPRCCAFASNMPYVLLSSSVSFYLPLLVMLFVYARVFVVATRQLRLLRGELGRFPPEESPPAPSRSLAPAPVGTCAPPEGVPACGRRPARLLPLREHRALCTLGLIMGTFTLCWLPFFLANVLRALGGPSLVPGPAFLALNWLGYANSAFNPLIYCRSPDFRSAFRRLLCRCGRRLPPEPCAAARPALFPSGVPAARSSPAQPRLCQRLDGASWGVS

[2] = target: Sodium channel protein type 2 subunit alpha (Homo sapiens, UniProt Q99250); experiment: Inhibition of human Nav1.2 channel expressed in Xenopus oocytes by two-intracellular microelectrode voltage clamp method; format: cell-based
[3] = target: Sodium-dependent serotonin transporter (Homo sapiens, UniProt P31645); experiment: Inhibition of human SERT expressed in HEK293 cells preincubated for 30 mins followed by fluorescent substrate addition measured after 30 mins by plate reader analysis; format: cell-based
[4] = target: T1, Beta-3 adrenergic receptor; experiment: Agonist activity at human beta3 adrenergic receptor expressed in CHO cells assessed as accumulation of cAMP after 30 mins by TR-FRET assay relative to (R)-(-)-isoproterenol; format: functional, cell-based
Target sequence in this assay (P13945 whole entry, looked up): as the sequence (P13945 whole entry) above

[5] = target: Beta-1 adrenergic receptor (Homo sapiens, UniProt P08588)
Description: Displacement of [125]I-cyanopindolol from recombinant human beta1 adrenergic receptor after 1 hr by scintillation counting method

[6] = target: Voltage-gated inwardly rectifying potassium channel KCNH2 (Homo sapiens, UniProt Q12809); experiment: Binding affinity to human ERG channel
[7] = target: Beta-2 adrenergic receptor (Homo sapiens, UniProt P07550)
Description: Displacement of [125]I-cyanopindolol from human recombinant beta2 adrenergic receptor after 1 hr by scintillation counting method

[8] = Distribution coefficient, logD of the compound at pH 7.4; format: physicochemical; settings: octanol/water
[9] = target: Voltage-dependent L-type calcium channel subunit alpha-1C (Homo sapiens, UniProt Q13936); experiment: Displacement of [3H]-diltiazem from human Cav1.2 channel
[10] = Induction of phospholidosis in human HepG2 cells incubated overnight by […] in presence of fluorescent labeled phospholipid probe NBD-PE; format: cell-based; settings: read-out: A50
Rhesus monkey [11] = experiment: Dose normalized total AUC in rhesus monkey at 2 mg/kg, po; format: ADME, organism-based, Macaca mulatta; settings: in vivo
[12] = target: T2, Beta-3 adrenergic receptor (Rattus norvegicus, UniProt P26255); experiment: Agonist activity at rat beta3 adrenergic receptor expressed in CHO cells assessed as accumulation of cAMP after 30 mins by TR-FRET assay; format: functional, cell-based
[13] = Plasma clearance in rhesus monkey at 0.5 mg/kg, iv or 2 mg/kg, po; format: ADME, organism-based, Macaca mulatta
[14] = target: Beta-3 adrenergic receptor (Macaca mulatta, UniProt Q28524); experiment: Agonist activity at rhesus monkey beta3 adrenergic receptor expressed in CHO cells assessed as accumulation of cAMP after 30 mins by TR-FRET assay; format: functional, cell-based
Canis familiaris [15] = experiment: Dose normalized fAUC in dog at 2 mg/kg, po; format: ADME, organism-based, Canis lupus familiaris; settings: in vivo
[16] = Fraction unbound in rhesus monkey at 0.5 mg/kg, iv or 2 mg/kg, po; format: ADME, organism-based, Macaca mulatta; settings: in vivo
Canis familiaris [17] = experiment: Unbound clearance in dog at 0.5 mg/kg, iv or 2 mg/kg, po; format: ADME, organism-based, Canis lupus familiaris; settings: in vivo
[18] = Stability in dog plasma assessed as parent compound remaining at 24 hrs by LC-MS analysis; format: ADME, cell-free, Canis lupus familiaris; settings: read-out: Stability
[19] = target: Beta-3 adrenergic receptor (Macaca mulatta) (UniProt Q28524); experiment: Agonist activity at rhesus monkey beta3 adrenergic receptor expressed in CHO cells assessed as accumulation of cAMP after 30 mins by TR-FRET assay relative to (R)-(-)-isoproterenol; format: functional, cell-based
Cytochrome P450 3A4 = Cytochrome P450 3A4 (Homo sapiens, UniProt P08684); experiment: Inhibition of CYP3A4 in human liver microsomes assessed as testosterone 6beta-hydroxylation; format: ADME
[20] = Stability in rat plasma assessed as parent compound remaining at 24 hrs by LC-MS analysis; format: ADME, cell-free; settings: read-out: Stability
[21] = Intrinsic clearance in rhesus monkey liver microsomes; format: ADME, Macaca mulatta; settings: read-out: CLH
[22] = Intrinsic clearance in human liver microsomes; format: ADME; settings: read-out: CLH
Rattus norvegicus [23] = experiment: Dose normalized total AUC in rat at 2 mg/kg, po; format: ADME, organism-based; settings: in vivo
Rhesus monkey [24] = experiment: Unbound clearance in rhesus monkey at 0.5 mg/kg, iv or 2 mg/kg, po; format: ADME, organism-based, Macaca mulatta; settings: in vivo
Rattus norvegicus [25] = experiment: Unbound clearance in rat at 1 mg/kg, iv or 2 mg/kg, po; format: ADME, organism-based; settings: in vivo
[26] = Stability in rhesus monkey plasma assessed as parent compound remaining at 24 hrs by LC-MS analysis; format: ADME, cell-free, Macaca mulatta; settings: read-out: Stability
[27] = target: T1, Beta-3 adrenergic receptor; experiment: Agonist activity at human adrenergic beta3 receptor expressed in CHO cells assessed as accumulation of cAMP after 30 mins by TR-FRET assay in presence of 40% serum relative to (R)-(-)-isoproterenol; format: functional, cell-based
Target sequence in this assay (P13945 whole entry, looked up): as the sequence (P13945 whole entry) above

[28] = target: Beta-3 adrenergic receptor (Rattus norvegicus) (UniProt P26255); experiment: Agonist activity at rat beta3 adrenergic receptor expressed in CHO cells assessed as accumulation of cAMP after 30 mins by TR-FRET assay in presence of 40% serum relative to (R)-(-)-isoproterenol; format: functional, cell-based
[29] = Half life in rhesus monkey at 0.5 mg/kg, iv or 2 mg/kg, po; format: ADME, organism-based, Macaca mulatta; settings: in vivo
[30] = Plasma clearance in dog at 0.5 mg/kg, iv or 2 mg/kg, po; format: ADME, organism-based, Canis lupus familiaris
[31] = Intrinsic clearance in rat liver microsomes; format: ADME; settings: read-out: CLH
[32] = Oral bioavailability in rhesus monkey at 2 mg/kg; format: ADME, organism-based, Macaca mulatta; settings: in vivo
[33] = Half life in dog at 0.5 mg/kg, iv or 2 mg/kg, po; format: ADME, organism-based, Canis lupus familiaris; settings: in vivo
[34] = Fraction unbound in dog at 0.5 mg/kg, iv or 2 mg/kg, po; format: ADME, organism-based, Canis lupus familiaris; settings: in vivo
[35] = Fraction unbound in rat at 1 mg/kg, iv or 2 mg/kg, po; format: ADME, organism-based; settings: in vivo
[36] = Stability in human plasma assessed as parent compound remaining at 24 hrs by LC-MS analysis; format: ADME, cell-free; settings: read-out: Stability
[37] = Intrinsic clearance in dog liver microsomes; format: ADME, Canis lupus familiaris; settings: read-out: CLH
Cytochrome P450 2D6 = Cytochrome P450 2D6 (Homo sapiens, UniProt P10635); experiment: Inhibition of CYP2D6 in human liver microsomes assessed as dextraomethorphan O-demethylation; format: ADME
Canis familiaris [38] = experiment: Dose normalized total AUC in dog at 2 mg/kg, po; format: ADME, organism-based, Canis lupus familiaris; settings: in vivo
Rattus norvegicus [39] = experiment: Increase in detrusor muscle relaxation in iv infused Sprague-Dawley rat acetic acid-induced bladder hyperreflexia model assessed as decrease in micturition pressure measured over 30 to 45 mins; format: functional, organism-based
Cytochrome P450 2C9 = Cytochrome P450 2C9 (Homo sapiens, UniProt P11712); experiment: Inhibition of CYP2C9 in human liver microsomes assessed as diclofenac alpha'-hydroxylation; format: ADME
[40] = Plasma clearance in rat at 1 mg/kg, iv or 2 mg/kg, po; format: ADME, organism-based
Rattus norvegicus [41] = experiment: Increase in detrusor muscle relaxation in iv infused Sprague-Dawley rat acetic acid-induced bladder hyperreflexia model assessed as increase in functional bladder capacity measured over 30 to 45 mins; format: organism-based
[42] = target: T1, Beta-3 adrenergic receptor; experiment: Agonist activity at human adrenergic beta3 receptor expressed in CHO cells assessed as accumulation of cAMP after 30 mins by TR-FRET assay in presence of 40% serum; format: functional, cell-based
Target sequence in this assay (P13945 whole entry): as above

[43] = Oral bioavailability in rat at 2 mg/kg; format: ADME, organism-based; settings: in vivo
Rattus norvegicus [44] = experiment: Dose normalized fAUC in rat at 2 mg/kg, po; format: ADME, organism-based; settings: in vivo
[45] = target: Beta-3 adrenergic receptor (Canis lupus familiaris, UniProt O02662); experiment: Agonist activity at dog beta3 adrenergic receptor expressed in CHO cells assessed as accumulation of cAMP after 30 mins by TR-FRET assay; format: functional, cell-based
Rhesus monkey [46] = experiment: Dose normalized fAUC in rhesus monkey at 2 mg/kg, po; format: ADME, organism-based, Macaca mulatta; settings: in vivo
[47] = target: Beta-3 adrenergic receptor (Rattus norvegicus) (UniProt P26255); experiment: Agonist activity at rat beta3 adrenergic receptor expressed in CHO cells assessed as accumulation of cAMP after 30 mins by TR-FRET assay relative to (R)-(-)-isoproterenol; format: functional, cell-based
[48] = target: T2, Beta-3 adrenergic receptor; experiment: Agonist activity at rat beta3 adrenergic receptor expressed in CHO cells assessed as accumulation of cAMP after 30 mins by TR-FRET assay in presence of 40% serum; format: functional, cell-based
[49] = Half life in rat at 1 mg/kg, iv or 2 mg/kg, po; format: ADME, organism-based; settings: in vivo
[50] = Oral bioavailability in dog at 2 mg/kg; format: ADME, organism-based, Canis lupus familiaris; settings: in vivo

Voltage-dependent L-type calcium channel subunit alpha-1C, sequence (Q13936 whole entry): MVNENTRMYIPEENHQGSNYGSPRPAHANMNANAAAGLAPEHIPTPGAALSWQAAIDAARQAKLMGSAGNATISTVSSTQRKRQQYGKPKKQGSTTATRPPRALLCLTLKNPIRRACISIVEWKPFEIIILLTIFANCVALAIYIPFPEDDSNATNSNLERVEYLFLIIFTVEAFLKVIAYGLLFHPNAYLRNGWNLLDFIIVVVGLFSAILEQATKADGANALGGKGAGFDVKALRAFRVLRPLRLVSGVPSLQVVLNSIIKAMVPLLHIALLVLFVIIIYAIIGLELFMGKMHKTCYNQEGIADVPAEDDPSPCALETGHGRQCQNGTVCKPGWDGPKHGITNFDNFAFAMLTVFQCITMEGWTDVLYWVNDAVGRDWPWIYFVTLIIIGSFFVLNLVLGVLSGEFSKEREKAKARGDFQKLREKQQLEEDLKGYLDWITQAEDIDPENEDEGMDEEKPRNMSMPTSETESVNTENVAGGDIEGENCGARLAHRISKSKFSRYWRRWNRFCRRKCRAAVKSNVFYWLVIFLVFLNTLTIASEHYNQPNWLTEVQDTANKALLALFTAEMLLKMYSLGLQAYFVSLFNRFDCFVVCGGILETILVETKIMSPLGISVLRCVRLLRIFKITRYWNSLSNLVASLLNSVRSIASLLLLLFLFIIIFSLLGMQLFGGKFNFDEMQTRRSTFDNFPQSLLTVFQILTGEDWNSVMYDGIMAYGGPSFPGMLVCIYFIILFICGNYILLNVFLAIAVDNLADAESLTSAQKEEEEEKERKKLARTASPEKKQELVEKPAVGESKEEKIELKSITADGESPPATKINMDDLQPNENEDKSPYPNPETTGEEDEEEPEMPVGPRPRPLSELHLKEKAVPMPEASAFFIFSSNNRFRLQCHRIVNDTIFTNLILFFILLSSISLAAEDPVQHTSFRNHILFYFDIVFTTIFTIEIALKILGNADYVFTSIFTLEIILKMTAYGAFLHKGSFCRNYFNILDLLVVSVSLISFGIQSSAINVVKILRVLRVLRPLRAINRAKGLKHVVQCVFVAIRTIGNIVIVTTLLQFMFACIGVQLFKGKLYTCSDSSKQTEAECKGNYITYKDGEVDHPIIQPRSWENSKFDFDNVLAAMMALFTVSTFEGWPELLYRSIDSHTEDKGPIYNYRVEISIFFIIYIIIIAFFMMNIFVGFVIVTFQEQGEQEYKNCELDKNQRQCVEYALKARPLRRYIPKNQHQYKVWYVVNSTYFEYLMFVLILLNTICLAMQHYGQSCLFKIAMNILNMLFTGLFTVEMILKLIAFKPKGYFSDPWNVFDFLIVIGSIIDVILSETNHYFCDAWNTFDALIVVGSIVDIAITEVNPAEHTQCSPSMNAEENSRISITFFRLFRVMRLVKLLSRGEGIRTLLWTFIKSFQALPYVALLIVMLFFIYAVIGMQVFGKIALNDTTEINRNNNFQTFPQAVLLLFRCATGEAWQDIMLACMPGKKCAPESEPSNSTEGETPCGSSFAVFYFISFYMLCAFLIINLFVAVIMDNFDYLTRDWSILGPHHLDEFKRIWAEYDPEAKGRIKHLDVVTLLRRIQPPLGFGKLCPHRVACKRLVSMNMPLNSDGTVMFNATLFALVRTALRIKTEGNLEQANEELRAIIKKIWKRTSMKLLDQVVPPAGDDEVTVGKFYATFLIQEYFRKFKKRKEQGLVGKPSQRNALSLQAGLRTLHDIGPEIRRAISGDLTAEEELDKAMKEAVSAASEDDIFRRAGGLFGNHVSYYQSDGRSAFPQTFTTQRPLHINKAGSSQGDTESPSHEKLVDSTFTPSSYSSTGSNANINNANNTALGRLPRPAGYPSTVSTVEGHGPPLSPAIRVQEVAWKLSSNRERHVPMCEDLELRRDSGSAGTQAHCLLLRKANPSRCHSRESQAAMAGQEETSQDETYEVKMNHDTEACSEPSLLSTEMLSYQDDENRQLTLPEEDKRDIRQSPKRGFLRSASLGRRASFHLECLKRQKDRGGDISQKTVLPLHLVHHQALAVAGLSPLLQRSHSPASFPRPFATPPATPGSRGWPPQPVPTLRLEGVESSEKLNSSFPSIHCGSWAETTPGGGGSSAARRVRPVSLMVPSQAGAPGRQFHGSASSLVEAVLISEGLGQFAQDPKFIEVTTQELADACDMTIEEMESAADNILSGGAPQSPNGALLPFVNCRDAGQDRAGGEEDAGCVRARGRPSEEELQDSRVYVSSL
Beta-2 adrenergic receptor, sequence (P07550 whole entry): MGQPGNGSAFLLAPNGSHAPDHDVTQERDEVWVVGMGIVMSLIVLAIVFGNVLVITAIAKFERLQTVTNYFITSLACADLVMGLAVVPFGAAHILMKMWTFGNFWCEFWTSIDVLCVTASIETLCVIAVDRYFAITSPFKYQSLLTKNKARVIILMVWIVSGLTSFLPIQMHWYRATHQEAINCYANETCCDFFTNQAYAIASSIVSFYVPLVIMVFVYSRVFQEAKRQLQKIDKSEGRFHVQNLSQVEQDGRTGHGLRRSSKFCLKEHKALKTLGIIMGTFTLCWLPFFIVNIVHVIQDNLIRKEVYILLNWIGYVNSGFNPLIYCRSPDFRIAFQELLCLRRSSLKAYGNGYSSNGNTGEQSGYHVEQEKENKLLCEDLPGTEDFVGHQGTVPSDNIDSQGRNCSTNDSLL
Sodium-dependent serotonin transporter, sequence (P31645 whole entry): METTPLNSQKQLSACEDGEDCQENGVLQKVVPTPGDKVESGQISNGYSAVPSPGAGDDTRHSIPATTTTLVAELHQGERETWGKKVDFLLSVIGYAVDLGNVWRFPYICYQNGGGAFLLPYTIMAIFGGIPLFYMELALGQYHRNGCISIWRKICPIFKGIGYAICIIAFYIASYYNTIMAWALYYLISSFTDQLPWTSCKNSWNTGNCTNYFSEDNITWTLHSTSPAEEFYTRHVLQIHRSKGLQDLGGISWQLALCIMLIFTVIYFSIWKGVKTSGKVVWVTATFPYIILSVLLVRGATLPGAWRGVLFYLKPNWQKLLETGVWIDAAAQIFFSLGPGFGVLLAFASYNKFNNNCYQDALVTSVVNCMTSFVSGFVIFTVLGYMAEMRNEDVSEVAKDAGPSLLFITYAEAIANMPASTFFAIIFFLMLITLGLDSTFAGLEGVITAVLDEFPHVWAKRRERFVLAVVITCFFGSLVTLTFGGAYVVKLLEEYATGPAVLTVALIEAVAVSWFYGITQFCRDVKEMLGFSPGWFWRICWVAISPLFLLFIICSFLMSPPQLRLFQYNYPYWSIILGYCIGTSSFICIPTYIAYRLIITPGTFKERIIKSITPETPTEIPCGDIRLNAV
Voltage-gated inwardly rectifying potassium channel KCNH2, sequence (Q12809 whole entry): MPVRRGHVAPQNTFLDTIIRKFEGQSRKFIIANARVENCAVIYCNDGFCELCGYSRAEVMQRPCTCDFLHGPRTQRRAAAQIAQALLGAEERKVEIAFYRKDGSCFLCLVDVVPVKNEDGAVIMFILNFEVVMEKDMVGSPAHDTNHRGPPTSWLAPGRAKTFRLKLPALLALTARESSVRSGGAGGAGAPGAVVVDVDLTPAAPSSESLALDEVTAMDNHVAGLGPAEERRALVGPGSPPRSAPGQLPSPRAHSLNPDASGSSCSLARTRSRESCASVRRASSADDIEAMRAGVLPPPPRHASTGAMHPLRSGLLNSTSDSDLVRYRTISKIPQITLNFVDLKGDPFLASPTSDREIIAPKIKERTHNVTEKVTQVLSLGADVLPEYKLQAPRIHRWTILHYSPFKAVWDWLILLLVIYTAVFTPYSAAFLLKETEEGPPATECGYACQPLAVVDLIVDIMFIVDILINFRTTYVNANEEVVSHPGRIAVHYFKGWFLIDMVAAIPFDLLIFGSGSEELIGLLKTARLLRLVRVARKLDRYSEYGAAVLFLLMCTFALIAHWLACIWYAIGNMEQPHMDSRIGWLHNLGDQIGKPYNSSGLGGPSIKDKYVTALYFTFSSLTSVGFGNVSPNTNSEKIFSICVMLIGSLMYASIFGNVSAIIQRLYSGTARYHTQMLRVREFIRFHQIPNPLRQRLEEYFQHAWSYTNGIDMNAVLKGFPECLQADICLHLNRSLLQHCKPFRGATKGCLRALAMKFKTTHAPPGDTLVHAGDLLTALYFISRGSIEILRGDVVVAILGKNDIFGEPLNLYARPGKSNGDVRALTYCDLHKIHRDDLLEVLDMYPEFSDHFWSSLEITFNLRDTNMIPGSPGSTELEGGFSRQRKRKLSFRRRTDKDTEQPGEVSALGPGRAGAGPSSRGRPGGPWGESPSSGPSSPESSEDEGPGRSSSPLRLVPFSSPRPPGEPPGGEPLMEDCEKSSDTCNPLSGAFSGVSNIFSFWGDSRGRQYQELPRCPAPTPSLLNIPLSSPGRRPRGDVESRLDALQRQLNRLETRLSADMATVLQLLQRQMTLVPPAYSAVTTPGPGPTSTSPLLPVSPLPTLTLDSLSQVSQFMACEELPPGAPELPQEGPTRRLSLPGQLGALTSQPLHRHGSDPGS

SMILES: O=C(Cn1ncccc1=O)Nc1ccc(C[C@@H]2CC[C@H]([C@H](O)c3ccccc3)N2)cc1
- AUC/dose (Rhesus monkey [11]): 820 nM·h/mg/kg
- EC50 [12]: 0.615 µM
- clearance [13]: 21 mL/min/kg
- EC50 [14]: 0.0035 µM
- fAUC/dose (Canis familiaris [15]): 612 nM·h/mg/kg
- fraction unbound [16]: 0.63
- CL free (Canis familiaris [17]): 15 mL/min/kg
- remaining at 24 h [18]: 100%
- max activation [19]: 91%
- EC50 [1]: 0.0048 µM
- IC50 (Cytochrome P450 3A4): > 100 µM
- remaining at 24 h [20]: 95%
- CLint scaled [21]: < 10 mL/min/kg
- CLint scaled [22]: < 10 mL/min/kg
- AUC/dose (Rattus norvegicus [23]): 66 nM·h/mg/kg
- CL free (Rhesus monkey [24]): 33 mL/min/kg
- IC50 [9]: > 30 µM
- CL free (Rattus norvegicus [25]): 148 mL/min/kg
- remaining at 24 h [26]: 95%
- max activation [27]: 96%
- max activation [28]: 99%
- half-life [29]: 9 h
- clearance [30]: 7.4 mL/min/kg
- IC50 [2]: > 30 µM
- CLint scaled [31]: < 15 mL/min/kg
- IC50 [3]: 4.4 µM
- bioavailability [32]: 46%
- half-life [33]: 8 h
- fraction unbound [34]: 0.51
- fraction unbound [35]: 0.27
- remaining at 24 h [36]: 26%
- max activation [4]: 105%
- CLint scaled [37]: 11 mL/min/kg
- IC50 (Cytochrome P450 2D6): > 100 µM
- AUC/dose (Canis familiaris [38]): 1200 nM·h/mg/kg
- Activity (Rattus norvegicus [39]): Dose-dependent effect
- IC50 (Cytochrome P450 2C9): > 100 µM
- AC50 [10]: 67 µM
- IC50 [5]: > 20 µM
- clearance [40]: 40 mL/min/kg
- Activity (Rattus norvegicus [41]): Dose-dependent effect
- EC50 [42]: 0.0059 µM
- bioavailability [43]: 14%
- fAUC/dose (Rattus norvegicus [44]): 17 nM·h/mg/kg
- EC50 [45]: 0.047 µM
- fAUC/dose (Rhesus monkey [46]): 517 nM·h/mg/kg
- max activation [47]: 79%
- IC50 [7]: > 20 µM
- EC50 [48]: 1.06 µM
- half-life [49]: 5 h
- logD [8]: 1
- bioavailability [50]: 18%

SMILES: O=C(Nc1ccc(C[C@@H]2CC[C@H]([C@H](O)c3cccnc3)N2)cc1)[C@@H]1CCc2scnc21
- remaining at 24 h [20]: 79%
- remaining at 24 h [36]: 1%
- max activation [4]: 82%
- AC50 [10]: 79 µM
- logD [8]: 1.1

Now from value to compound, other results behind:

- EC50 [1]: 0.0009 µM
- IC50 [2]: 30 µM
- IC50 [3]: 1.4 µM
- max activation [4]: 92%
- IC50 [5]: > 20 µM
- IC50 [7]: > 20 µM
- logD [8]: 1.2
SMILES: Nc1nc(CC(=O)Nc2ccc(C[C@@H]3CC[C@H]([C@H](O)c4ccccc4)N3)cc2)cs1
- IC50 [6]: 19 µM

- EC50 [1]: 0.0043 µM
- IC50 [2]: > 30 µM
- IC50 [3]: 1.1 µM
- max activation [4]: 97%
- AC50 [10]: > 100 µM
- IC50 [5]: > 20 µM
- IC50 [7]: > 20 µM
SMILES: O=C(Cn1ccccc1=O)Nc1ccc(C[C@@H]2CC[C@H]([C@H](O)c3ccccc3)N2)cc1
- IC50 [9]: > 30 µM
- IC50 [6]: > 30 µM

- EC50 [1]: 0.0039 µM
- IC50 [2]: > 30 µM
- IC50 [3]: 0.7 µM
- max activation [4]: 91%
- AC50 [10]: > 100 µM
- IC50 [5]: > 20 µM
- IC50 [7]: > 20 µM
SMILES: O=C(Cn1cnccc1=O)Nc1ccc(C[C@@H]2CC[C@H]([C@H](O)c3ccccc3)N2)cc1
- IC50 [9]: > 30 µM
- IC50 [6]: > 30 µM
